Measurements reported in patent US11479587B2, “Cationic intrinsically disordered antimicrobial peptides” (priority 2016, dated 2022).
“And” between values parts separate entries of the source, which are not always exact repeats. Identical values can stand only once. Residues, ends and D or L forms follow the SMILES beside them. Primed or numbered codes have the meaning given here. No end group written: not given here. FITC′ = fluorescein isothiocyanate

How the values were obtained:
S. aureus ATCC 6538 = test: CFU-assay, S. aureus-cidal activity; assay type: cell-based, Staphylococcus aureus
Method: (§1) Thus, within the present invention, the antimicrobial activity is generally measured in nutrient deficient 10 mM sodium phosphate buffer pH 5.5, containing 0.25% glucose, using the CFU-assay according to Steinberg and Lehrer, 1997 (supra), unless otherwise indicated. The CFU-assay allows determination of the minimal bactericidal concentration (MBC, e.g., MBC90 and MBC100; i.e. the concentration of compound required to achieve a specified reduction in bacterial cell number (microbial death or killing)).
Various peptides corresponding to repeat domains of hornerin (HR 1-11: HRNR 2606-2628; HR 1-17: HRNR 2656-2684 and HR 1-18: HRNR 2656-2677) were tested for P. aeruginosa ATCC 10145-cidal activity in 10 mM Na-phosphate buffer pH 5.5, containing 0.25% glucose by counting the numbers of colonies of surviving bacteria at serial, twofold dilutions from 300 μg/ml down to 19 ng/ml of each peptide (CFU-assay; Steinberg and Lehrer, 1997, Methods Mol. Biol. 78, 169-186).
Staphylococcus aureus is a major skin pathogen, which causes skin infections, in particular in atopic dermatitis. The sensitivity of S. aureus ATCC 6538 towards several CIDAMPs was assessed using the CFU-assay as above (see Example 1). HR 1-18, which lacks S. aureus.-bactericidal activity, is converted in a S. aureus-cidal peptide, when all His are replaced by Arg (HR 1-18 4H-4R; see Table 13 and FIG. 9). […] HR 1-18 4H-4R is rich in Ser and Arg and contains a single Leu residue. When this single Leu was replaced by Gly in S. aureus-cidal HR 1-18 4H-4R (forming HR 1-18 4H-4R/L-G), S. aureus-cidal activity was abolished at both pH 7.0 and pH 5.5 (see Table 13 and FIG. 9).

[1] = Cytotoxicity (resazurin) assay
Method: For the cytotoxicity (resazurin) assay, HEK293 cells were counted manually in a Neubauer haemocytometer and plated at a density of 4000 cells/well into each well of the 384-well plates containing the 25×(2 μl) concentrated compounds. The medium used was Dulbecco's modified eagle medium (DMEM) supplemented with 10% foetal bovine serum (FBS). Cells were incubated together with the compounds for 20 h at 37° C., 5% CO2. To measure cytotoxicity, 5 μl (equals 100 μM final) resazurin was added to each well after incubation, and incubated for further 3 h at 37° C. with 5% CO2.
After final incubation fluorescence intensity was measured as F ex 560/10 nm, em 590/10 nm (F560/590) using a Tecan M1000 Pro monochromator plate reader. […] The concentration dependent percentage cytotoxicity was fitted to a dose response function (using Pipeline Pilot) and CC50 values determined.

Hemolysis assay = assay type: cell-based; conditions: for HC50 at 1 h: human, washed erythrocytes from EDTA-blood, pH 7.4
Method: For the hemolysis assays EDTA-blood was centrifuged at 800×g for 10 min, and the plasma and buffy coat were removed. The erythrocytes were washed three times and resuspended in 5% PBS, pH 7.4. The cells were then incubated with end-over-end rotation for 1 h at 37° C. in the presence of different concentrations of peptides (0, 3, 10, 30, 60 μm). 0.1% Triton X-100 (Sigma-Aldrich) served as positive control. The samples were then centrifuged at 800×g for 10 min.
The absorbance of hemoglobin release was measured at 540 nm and is expressed as % of Triton X-100-induced hemolysis. These values of triplicates were plotted with Graph Pad Prism 4 as a dose response curve and the CC50 was determined.

C. albicans ATCC 928 = conditions: for MIC: ATCC 928, 18 h, pH 7.4
[2] = test system: methicillin-resistant S. aureus strain (ATCC 43300); assay type: cell-based, Staphylococcus aureus; conditions: ATCC 43300, 18 h
Method: Furthermore, sensitivity of a methicillin-resistant S. aureus strain (ATCC 43300) was investigated for palmitoylated CIDAMPs in a microtiter plate screening model, with incubation in Mueller-Hinton medium at 37° C. for 18 h using resazurin as a marker for cell viability.
A sample of each culture was then diluted 40-fold in fresh broth and incubated at 37° C. for 1.5-3 h. […] All the plates were covered and incubated at 37° C. for 18 h.
Inhibition of bacterial growth was determined using resazurin as a marker for cell viability. Resazurin was added to each well, at 0.001% final concentration, and plates incubated at 37° C. for 2 h. Fluorescence intensity was measured, using F (top read), ex 560/10 nm, em 590/10 nm, using a Tecan M1000 Pro monochromator plate reader.

P. aeruginosa ATCC 10145 = test: CFU-assay, P. aeruginosa-cidal activity; assay type: cell-based, Pseudomonas aeruginosa; conditions: pH 5.0, 0.25% glucose
[3] = test system: Candida albicans ATCC 24433; test: CFU-assay, Candida albicans-cidal activity; assay type: cell-based; conditions: pH 5.5, 0.25% glucose
Method: as §1, with “killing)). […]” for “killing)).”
HR 1-17 affects C. albicans ATCC 24433 with highest activity at pH 5.5 in the absence of TSB in the medium (see Tables 12, 24). […] Furthermore, the substitution of any of the Arg residues by Gly leads to a dramatic reduction or loss of candidacidal activity (see Table 24).

[4] = standard conditions at pH 7.4, activity at concentration <32 pg/ml

Compound: N=C(N)NCCC[C@H](NC(=O)[C@H](CCCNC(=N)N)NC(=O)[C@H](CS)NC(=O)[C@H](CCCNC(=N)N)NC(=O)[C@H](Cc1c[nH]cn1)NC(=O)[C@H](CO)NC(=O)[C@H](CCCNC(=N)N)NC(=O)[C@H](CS)NC(=O)[C@H](CS)NC(=O)[C@H](CCCNC(=N)N)NC(=O)[C@H](Cc1c[nH]cn1)NC(=O)[C@H](Cc1c[nH]cn1)NC(=O)[C@@H](N)CO)C(=O)O [LCE3B56-68] (H-SHHRCCRSHRCRR-OH; N-terminus and C-terminus assumed)
- S. aureus MBC90 (S. aureus ATCC 6538; pH 5.5): 0.044 µM
- S. aureus MBC100 (S. aureus ATCC 6538; pH 5.5): >88.7 µM
- MBC90 (S. aureus ATCC 6538; pH 5.5, 0.25% glucose): 0.075 µg/mL
- MBC100 (S. aureus ATCC 6538; pH 5.5, 0.25% glucose): >150 µg/mL
- max.killing (S. aureus ATCC 6538; pH 5.5, 0.25% glucose): max.killing: 99.3%
- MBC90 (S. aureus ATCC 6538; pH 5.5, 0.25% glucose (text)): 44 nM
- CC50 [1]: > 32 µg/mL and > 18.9 µM
- CC50 (Hemolysis assay): > 300 µg/mL
- HC50 at 1 h (Hemolysis assay): > 113 µM
- Antifungal activity, C. albcans ATCC90028 (C. albicans ATCC 928; [4]): I (I-inactive)
- Antifungal activity, C. neoformans ATCC 208821 (C. neoformans; [4]): A (A-active)

Compound: N=C(N)NCCC[C@H](NC(=O)[C@H](CCCNC(=N)N)NC(=O)[C@H](CS)NC(=O)[C@H](CCCNC(=N)N)NC(=O)[C@H](Cc1c[nH]cn1)NC(=O)[C@H](CO)NC(=O)[C@H](CCCNC(=N)N)NC(=O)[C@H](CS)NC(=O)[C@H](CS)NC(=O)[C@H](CCCNC(=N)N)NC(=O)[C@H](Cc1c[nH]cn1)NC(=O)[C@H](Cc1c[nH]cn1)NC(=O)[C@@H](N)CO)C(=O)O [LCE3B5668] (H-SHHRCCRSHRCRR-OH; N-terminus and C-terminus assumed)
- MIC, S. aureus ATCC 43300 [2]: ≥32 µg/mL

Compound: CCCCCCCCCCCCCCCC(=O)NCC(=O)N[C@@H](CCCNC(=N)N)C(=O)NCC(=O)N[C@@H](CCCNC(=N)N)C(=O)O [Pal-GR4, Pal-GRGR] (HELM PEPTIDE1{[CCCCCCCCCCCCCCCC(=O)[*:2]].G.R.G.R}$$$$V2.0)
- MIC, S. aureus ATCC 43300 [2]: ≥8 µg/mL
- CC50 [1]: > 32 µg/mL
- HC50 (Hemolysis assay): 100 µg/mL
- MIC, C. albicans ATCC 90028 (C. albicans ATCC 928; ATCC 928): ≥8 µg/mL
- MIC (C. albicans ATCC 928): 1 to 32 µg/mL
- MIC, C. neoformans ATCC 208821 (C. neoformans): ≥8 µg/mL

Compound: CCCCCCCCCCCCCCCC(=O)NCC(=O)N[C@@H](CCCNC(=N)N)C(=O)N[C@@H](CCCNC(=N)N)C(=O)NCC(=O)NCC(=O)N[C@@H](CCCNC(=N)N)C(=O)O [Pal-GR6, Pal-GRRGGR] (HELM PEPTIDE1{[CCCCCCCCCCCCCCCC(=O)[*:2]].G.R.R.G.G.R}$$$$V2.0)
- MIC, S. aureus ATCC 43300 [2]: ≥16 µg/mL
- CC50 [1]: > 32 µg/mL
- HC50 (Hemolysis assay): > 300 µg/mL
- MIC, C. neoformans ATCC 208821 (C. neoformans): ≥16 µg/mL

Compound: CCCCCCCCCCCCCCCC(=O)NCC(=O)N[C@@H](CCCNC(=N)N)C(=O)N[C@@H](CCCNC(=N)N)C(=O)NCC(=O)NCC(=O)N[C@@H](CCCNC(=N)N)C(=O)NCC(=O)NCC(=O)N[C@@H](CCCNC(=N)N)C(=O)O [Pal-GR9] (HELM PEPTIDE1{[CCCCCCCCCCCCCCCC(=O)[*:2]].G.R.R.G.G.R.G.G.R}$$$$V2.0)
- MIC, S. aureus ATCC 43300 [2]: ≥8 µg/mL
- CC50 [1]: > 32 µg/mL and > 27.4 µM
- HC50 (Hemolysis assay): > 300 µg/mL
- HC50 at 1 h (Hemolysis assay): > 257 µM
- MIC (C. albicans ATCC 928): 1 to 32 µg/mL

Compound: CCCCCCCCCCCCCCCC(=O)N[C@@H](Cc1c[nH]cn1)C(=O)NCC(=O)N[C@@H](CO)C(=O)N[C@@H](CCCNC(=N)N)C(=O)N[C@@H](CO)C(=O)NCC(=O)N[C@@H](CCC(N)=O)C(=O)N[C@@H](CO)C(=O)N[C@@H](CO)C(=O)N[C@@H](CCCNC(=N)N)C(=O)NCC(=O)N[C@@H](CCC(=O)O)C(=O)N[C@@H](CCCNC(=N)N)C(=O)N[C@@H](Cc1c[nH]cn1)C(=O)NCC(=O)N[C@@H](CO)C(=O)N[C@@H](CO)C(=O)N[C@@H](CO)C(=O)NCC(=O)N[C@@H](CO)C(=O)N[C@@H](CO)C(=O)N[C@@H](CO)C(=O)N[C@@H](Cc1c[nH]cn1)C(=O)O [Pal-HR 1-11] (HELM PEPTIDE1{[CCCCCCCCCCCCCCCC(=O)[*:2]].H.G.S.R.S.G.Q.S.S.R.G.E.R.H.G.S.S.S.G.S.S.S.H}$$$$V2.0)
- MIC, S. aureus ATCC 43300 [2]: >32 µg/mL
- CC50 [1]: > 32 µg/mL

Compound: FITC-GRHGSGLGHSSSHGQHGSGSGR ({FITC′}-GRHGSGLGHSSSHGQHGSGSGR) [FITC-HR 1-18]
- MBC90 (P. aeruginosa ATCC 10145): 0.15 µg/mL
- MBC100 (P. aeruginosa ATCC 10145): 1.18 µg/mL
- MBC90 (S. aureus ATCC 6538; pH 5.5, 0.25% glucose): 300 µg/mL
- MBC100 (S. aureus ATCC 6538; pH 5.5, 0.25% glucose): >300 µg/mL
- MBC90 [3]: 2.35 µg/mL
- MBC100 [3]: 75 µg/mL
